# How the values were obtained:
# [1] = system: OVA induced airway inflammation; assay: Ovalbumin (OVA) induced allergic airway inflammation, BAL fluid cell counts; format: in vivo, Balb/c mice; settings: prophylactic protocol, 50 μg/animal intranasal on day 16 and 21; for cell migration into BAL fluid: second experiment
# Procedure: Mice were sensitized intraperitoneally with 200 μL OVA/aluminium hydroxide gel (1:3) on day 0 and 12 (see FIG. 6). OVA (chicken egg albumin grade V, Sigma, St. Louis, Mo.) was dissolved in saline and mixed with aluminium hydroxide gel to a concentration of 50 μg/mL by rotation at 4° C. for 3 h. On days 23, 26, 30 and 33 (see FIG. 6), mice were challenged in the lungs by inhalation of aerosolized OVA for 30 minutes using a Batelle exposure chamber. Aerosols were generated by a compressed-air nebulizer (Collison 6-jet) at airflow 7.4 L/min using a nebulizer concentration of 10 mg/mL OVA dissolved in PBS (Sigma, St Louis, Mo., USA). The control group with non-sensitized animals received no other treatment than aerosolized OVA at days 23, 26, 30 and 33.
# In this OVA model (FIG. 6), a total of 4 oligonucleotides were tested, IDX9025, IDX9038, IDX9053 (Table 1, SEQ ID NO 2-4) and IDX0150 (Table 3, SEQ ID NO 11). The oligonucleotides were synthesized by biomers.net GmbH, Ulm, Germany and stored frozen at −20° C. The oligonucleotides were diluted with PBS to the working concentration (1,247 μg/μL) and kept at −20° C. until the first day of instillation, thereafter they were placed at 4° C.
# In a first experiment, both prophylactic and therapeutic protocols were tested (see FIG. 6). The drug treatment consisted of intranasal instillations of IDX0150 (1,247 μg/μL, provided by InDex Pharmaceuticals AB, Stockholm, Sweden) on days 16 and 21 (prophylactic protocol), on days 30 and 33 (therapeutic protocol A) or on days 30 and 34 (therapeutic protocol B). The instillations in the therapeutic protocols (A & B) on days 30 and 33 were given 4 h after aerosol challenge. The second instillation in protocol B on day 34 was given 24 h after the last aerosol challenge. The drug was administered in 40 μL PBS giving a dose of ˜50 μg/mice (49.88 μg/mice). The two sensitized sham-treatment groups were instilled with PBS, the same total volume as for the treatment groups, according to either the prophylactic protocol (days 16 and 21) or to the therapeutic protocol A (days 30 and 33).
# In a second experiment, since administration of IDX0150 in the first experiment using prophylactic protocol (FIG. 6) gave a significant reduction of airway inflammation (FIG. 7), three other substances were tested with the same protocol. The drug treatment consisted of intranasal instillations of IDX9025, IDX9038 and IDX9053 (Table 1) (1,247 μg/μL, provided by InDex Pharmaceuticals AB) on days 16 and 21 (see FIG. 6, prophylactic protocol). All substances were administered in 40 μL PBS giving a dose of ˜50 μg/mice (49.88 μg/mice). The two sensitized sham-treatment groups were instilled with PBS, the same total volume as for the treatment groups, according to the prophylactic protocol (days 16 and 21).
# Mice were killed by cervical dislocation 42 h after the last OVA aerosol challenge. The trachea was cannulated with polyethylene tubing (Becton Dickinson, Sparks, Md., USA) and bronchoalveolar lavage (BAL) was performed using 4×1 mL aliquots of ice-cold Hank's balanced salt solution (HBSS) (Sigma, St Louis, Mo., USA). The BAL fluid was centrifuged (400 g, 10 min, 4° C.) and the BAL fluid cells were resuspended in 0.4 mL PBS. The total number of leukocytes counted using tryphan blue exclusion in a Barker chamber. Duplicate Cytospin (Cytospin 3, Shandon, Runcorn, UK) preparations of BAL fluid cells were stained with May Grünewald Giemsa for differential counts, using standard morphological criteria.
# Statistical comparisons were performed using One-way analysis of variance (ANOVA) using Dunnett's post hoc correction to compare with sensitized PBS treated control mice (GraphPad Prism 3). Data are shown as mean±standard deviation. P<0.05 was considered significant.
# [2] = system: tetradecanoylphorbol 13-acetate (TPA) induced ear edema; assay: TPA-induced ear edema model; format: in vivo, mice; settings: for AUC reduction (%) TPA: 10 μg one single s.c. injection 20 minutes before TPA, compared to PBS control; for Peak reduction (%) TPA: 10 μg subcutaneously 20 minutes before induction of edema
# Procedure: A stock solution of TPA was prepared by dissolving TPA in DMSO, 1 mg/mL, and was stored frozen at −80° C. For study B-E, a working solution was prepared with 200 μL of the TPA stock solution added to 800 μL acetone. The working solution was used the same day as it was prepared.
# Each cage was identified by a cage card marked with study number, group number, ethical approval number, sex and animal ear numbers. The animals were individually marked on the tail with transverse lines corresponding to the animals' number, using a permanent-ink felt pen. An illustration of the protocols used for the different treatments is outlined in Table 4. The compounds were tested according to the same protocols with necessary modifications.
# Intraperitoneal (i.p.) injections were performed by giving 100 μL in the lower right quadrant of the abdomen. Subcutaneous injections were done with 100 μL in the neck region. Intranasal administration was performed by letting the mouse inhale droplets into the nostrils, total volume 40 μL. All administrations were done on non-anesthetized mice.
# (§1) Both outer ears of a non-anesthetized mouse were washed with mild soap (Palmolive, Sweden) using a soft tooth brush, the ears were dried with tissue and cleaned with tissue soaked with acetone. After allowing the acetone to evaporate, TPA or AA was applied on both sides, 10 μL, on each side of the ear with care to cover the whole ear. The mouse was held for 20 seconds to allow the solvent to evaporate.
# Intraperitoneal injections were given in the lower right quadrant of the abdomen with the animal held in a supine position. Subcutaneous (s.c.) injections were given in the neck of the animals. Intranasal administrations were given to mice held in a slightly reclining position. With an adjustable micro-pipette 40 μL of the test substance was given in droplets on the nostrils and the mouse was allowed to aspirate at free will.
# (§2) The ears of non-anesthetized mice were measured at different time points for up to 96 hours after the TPA was administered, or up to 24 hours for the AA model. The first measurements were done before the edema was induced. The thickness was recorded with a spring loaded dial micrometer (Limit, Thickness Gauge, accuracy 0.01 mm, contact area Ø6 mm, Luna AB, Allingsås, Sweden) in triplicates at all time points per ear.
# (§3) The average thickness for both ears on a mouse was calculated and compared to the average thickness of the ears at the starting time point. The value obtained at the start of the experiment was set as 100%. The peak values and area under the curve (AUC) values for the treatment groups were calculated and compared to the inflamed control group, treated with PBS (set as 100%), and expressed as a percentage change (Δ% AUC).
# (§4) Area under the curve (AUC) with base line set as 100 was calculated using GraphPad Prism version 4.03 for Windows (GraphPad Software, San Diego Calif. USA, www.graphpad.com).
# AUC reduction and P-values were calculated against the positive control (TPA or AA+PBS).
# [3] = system: arachidonic acid (AA) induced ear edema; assay: Arachidonic acid (AA) induced ear edema model; format: in vivo, mice
# Procedure: A stock solution of AA was prepared by diluting AA in acetone, 4 mg/10 μL, and was stored frozen at −80° C. A final working solution, 1 mg/10 μL, in acetone was prepared. The working solution was used within one hour after preparation.
# as §1, §2, §3, §4
# In addition to the experiments done with the control compounds and IDX0001, all other test compounds were investigated in a similar fashion in the TPA and/or AA ear edema models, where the test compounds were given subcutaneously (10 μg) 20 minutes before induction of edema. The results were expressed as reduction of peak value and reduction of area under curve (AUC) in Table 5.
Substance,cell migration into BAL fluid [1],AUC reduction (%) TPA [2],Peak reduction (%) TPA [2],migration of eosinophils into the BAL fluid ([1]; P<0.001),migration of leukocytes into the BAL fluid ([1]; P<0.05),"AUC reduction (%) AA ([3]; 10 μg one single s.c. injection 20 minutes before AA, compared to PBS control)",Peak reduction (%) AA ([3]; 10 μg subcutaneously 20 minutes before induction of edema)
"G*G*G*TCGTCTG*C*G*G (GGGTCGTCTGCGG; DNA, linkages s3 o6 s3 (s phosphorothioate, o phosphodiester), methylation of C not given here) [IDX9053]",no significant reduction of cell migration,−39.0%,−30.5%,,,,
"T*C*G*TCGTTCGGCCGATCG*T*C*C (TCGTCGTTCGGCCGATCGTCC; DNA, linkages s3 o14 s3 (s phosphorothioate, o phosphodiester), methylation of C not given here) [IDX9038, oligonucleotide; * = phosphorothioate modification]",,−47.4%,−37.9%,significantly reduce,significantly reduce,,
"T*G*C*CATTCGTCGATTTCGTC*G*A*T (TGCCATTCGTCGATTTCGTCGAT; DNA, linkages s3 o16 s3 (s phosphorothioate, o phosphodiester), methylation of C not given here) [IDX9025, oligonucleotide; * = phosphorothioate modification]",no significant reduction of cell migration,−57.8%,−23.5%,,,−81.9%,−14.9%

# — patent publication US8410068B2, “Compounds for the treatment or alleviation of edema, and methods for their use” (Index Pharmaceuticals AB, priority 2007, dated 2013)
